The results in this text go back to patent US20250206760A1, “NITROGEN-CONTAINING HETEROCYCLIC COMPOUND, PREPARATION METHOD THEREFOR, AND PHARMACEUTICAL APPLICATION THEREOF” (Jiangsu Hengrui Pharmaceuticals Co., Ltd., priority 2022, published 2025).

The test system of data set [1] is HER2 wild-type Ba/F3 cells. The data set is described as follows: Ba/F3 cell proliferation assay, HER2 wild-type. Conditions: Mus musculus, BaF3, 72 h, Celltiter-Glo cell viability; for GI50: read-out: HER2 WT/BaF3 GI50; for Emax: read-out: HER2 WT/BaF3 Imax %. The class given is cell-based. How it is done: (§1) EGFR wild-type Ba/F3 cells (Cobioer, Cat. No. CBP73110) in the logarithmic growth phase were seeded into a 96-well plate at 2.5×10^3 cells/[…] in a growth medium, and HER2 wild-type Ba/F3 cells (Cobioer, Cat. No. CBP73110) or HER2 A775_G776insYVMA mutant Ba/F3 (Cobioer, Cat. No. CBP73184) in the logarithmic growth phase were seeded into a 96-well plate at 5×10^3 cells/100 μL in a growth medium.
(§2) The plates were placed in a cell incubator at 37° C. overnight. The compound diluted in 3-fold gradient with a medium was added to the plates at 100 μL/well the next day. All treatments were performed in triplicate. The plates were cultured in the cell incubator at 37° C. for another 72 h. Celltiter-Glo Luminescent cell viability assay was performed.
(§3) The cell proliferation rate corresponding to each well was calculated according to the following formula: proliferation %=(test compound well G3-GO average value)/(DMSO control well G3 average value -GO average value)×100. According to the corresponding proliferation rate and concentration of each gradient concentration well, a gradient curve of cell proliferation was fitted using Prism Graphpad software, and GI50 (GI50 is defined as the concentration of a compound corresponding to the cell proliferation inhibition rate of 50%) of the compound was calculated.
On the technique in general: In ATP-based viability assays light output follows the ATP content of the culture.

The test system of data set [2] is HER2 A775_G776insYVMA mutant Ba/F3. The data set is described as follows: Ba/F3 cell proliferation assay, HER2 A775_G776insYVMA mutant. The class given is cell-based. The conditions noted are these: Mus musculus, BaF3, 72 h, Celltiter-Glo cell viability; for GI50: read-out: HER2 A775_G776 ins YVMA/BaF3 GI50; for Emax: read-out: HER2 A775_G776 ins YVMA/BaF3 Imax %. How it is done:
as §1, §2, §3

Data set [3] deals with EGFR wild-type Ba/F3 cells. The data set is described as follows: Ba/F3 cell proliferation assay, EGFR wild-type. Type of data set: cell-based. The conditions noted are these: 72 h, Celltiter-Glo cell viability; for GI50: Mus musculus, BaF3, read-out: EGFR WT/BaF3 GI50. How it is done: as §1, §2, §3
A short description of data set [4]: in vivo. Also noted: species or system SD rats. Conditions: both sexes, SD, rat, po, 50 mg/kg. How it is done:
SD rats were used as test animals. After intragastric (i.g.) administration of example compounds to SD rats, the plasma concentrations at different time points were measured by the LC/MS/MS method. The pharmacokinetic behavior of the compound of the present disclosure in SD rats was studied, and its pharmacokinetic profiles were evaluated.
Four SD rats, of which half were male and half female, were provided by Vital River Laboratory Animal Technology Co., Ltd. The animals were fasted overnight and then intragastrically dosed.
A certain amount of example compound was weighed out and dissolved in 5% DMSO+20% PEG400+70% (10% TPGS)+5% (1% HPMC K100LV) to prepare a 5 mg/mL colorless clear solution.
The dose administered was 50 mg/kg, and the volume was 10.0 mL/kg.
0.2-mL blood samples were collected from the orbit before administration and 0.25 h, 0.5 h, 1.0 h, 2.0 h, 4.0 h, 6.0 h, 8.0 h, 11.0 h, and 24.0 h after administration. The blood samples were placed into EDTA-K2 anticoagulation test tubes and centrifuged at 10,000 rpm for 1 min (4° C.), and plasma was separated within 1 h and stored in dry ice before analysis. The procedure starting from the blood collection to the centrifugation was performed under ice-bath conditions. Access to food was given 2 hours after administration.
After administration of different concentrations of the test compounds, the plasma concentration of the test compound in SD rats was determined: plasma samples (50 μL) were collected from the SD rats at various time points after administration, and 25 μL of camptothecin (1 μg/mL) and 450 μL of acetonitrile were added to each of the samples. The mixtures were vortexed and centrifuged at 3700 rpm for 10 min. 0.1 μL of the supernatant was taken for LC/MS/MS analysis.

Data set [5] in a line: in vivo. Also noted: species or system C57 mice. The conditions noted are these: female, C57, mouse, po, 50 mg/kg. The method, then: C57 mice were used as test animals. After intragastric (i.g.) administration of example compounds to C57 mice, the plasma concentrations at different time points were measured by the LC/MS/MS method. The pharmacokinetic behavior of the compounds of the present disclosure in C57 mice was studied and their pharmacokinetic profiles were evaluated.
Twenty-seven C57 mice, female, were evenly divided into 3 groups, provided by Beijing HFK Bioscience Co., Ltd., and intragastrically administered.
A certain amount of example compound was weighed out and dissolved in 5% DMSO+20% PEG400+70% (10% TPGS)+5% (1% HPMC K100LV) to prepare a 2.5 mg/mL colorless clear solution.
The dose administered was 50 mg/kg, and the volume was 20.0 mL/kg.
0.1-mL blood samples were collected from the orbit before administration and 0.25 h, 0.5 h, 1.0 h, 2.0 h, 4.0 h, 6.0 h, 8.0 h, 11.0 h, and 24.0 h after administration. The blood samples were placed into EDTA-K2 anticoagulation test tubes and centrifuged at 10,000 rpm for 2 min (4° C.), and plasma was separated within 1 h and stored at −20° C. before analysis. The procedure starting from the blood collection to the centrifugation was performed under ice-bath conditions. Access to food was given 2 hours after administration.
After administration of different concentrations of the test compounds, the plasma concentrations of the test compounds in C57 mice were determined: plasma samples (50 μL) were collected from the C57 mice at various time points after administration, and 25 μL of labetalol (1 μg/mL) and 450 μL of acetonitrile were added to each of the samples.
The mixtures were vortexed and centrifuged at 3700 rpm for 10 min. 0.1 μL of the supernatant was taken for LC/MS/MS analysis.

As for `C=CC(=O)N1[C@@H]2CC[C@H]1C[C@@H](Oc1ccc3ncnc(Nc4ccc(Oc5ccn6ncnc6c5)c(C)c4F)c3c1)C2` [Example 10, 1-(endo-3-((4-((4-([1,2,4]Triazolo[1,5-a]pyridin-7-yloxy)-2-fluoro-3-methylphenyl)amino)quinazolin-6-yl)oxy)-8-azabicyclo[3.2.1]octan-8-yl)prop-2-en-1-one], in data set [1], the GI50 turned out to be 9.3 nM and the Emax worked out at 100%. In addition, in data set [2], the GI50 amounted to 10.3 nM and the Emax stood at 100%. In data set [3], the “EGFR WT/BaF3 Imax %” value was found to be 100% and the GI50 was 2840 nM. In the data set “in vivo [4]”, the AUC(0-t) is 70800 ng·h/mL, the CL/F was found to be 14.7 mL/min/kg, the Cmax amounted to 19300 ng/mL and the Vd/F stood at 2.95 L/kg. In addition, in the data set “in vivo [4]”, the half-life was 2.3 h. In the data set “in vivo [5]”, this compound yielded an AUC(0-t) of 31200 ng·h/mL, a CL/F of 26.5 mL/min/kg, a Cmax of 14000 ng/mL and a Vd/F of 3.75 L/kg. Moreover, in “in vivo [5]”, the half-life was 1.6 h.

`C=CC(=O)N1[C@@H]2CC[C@H]1C[C@@H](Oc1ccc3ncnc(Nc4ccc(Oc5ccc6c(c5)ncn6C)c(C)c4F)c3c1)C2` [Example 18, 1-(endo-3-((4-((2-Fluoro-3-methyl-4-((1-methyl-1H-benzo[d]imidazol-5-yl)oxy)phenyl)amino)quinazolin-6-yl)oxy)-8-azabicyclo[3.2.1]octan-8-yl)prop-2-en-1-one]: in data set [1], the GI50 was 17.7 nM and the Emax was 100%. Also, in data set [2], the GI50 is 23.6 nM and the Emax came out at 100%. In addition, in data set [3], the “EGFR WT/BaF3 Imax %” value turned out to be 100% and the GI50 is 2130 nM. In the data set “in vivo [5]”, this compound gave an AUC(0-t) of 44900 ng·h/mL, a CL/F of 18.5 mL/min/kg, a Cmax of 12700 ng/mL and a Vd/F of 3.93 L/kg. In “in vivo [5]”, this compound gave a half-life of 2.5 h.

As for `C=CC(=O)N1[C@@H]2CC[C@H]1C[C@@H](Oc1ccc3ncnc(Nc4ccc(Oc5ccc6c(c5)ncn6C)c(C)c4)c3c1)C2` [Example 2, 1-(endo-3-((4-((3-Methyl-4-((1-methyl-1H-benzo[d]imidazol-5-yl)oxy)phenyl)amino)quinazolin-6-yl)oxy)-8-azabicyclo[3.2.1]octan-8-yl)prop-2-en-1-one], in data set [1], the GI50 was 18.9 nM and the Emax is 100%. Besides, in data set [2], the GI50 is 24 nM and the Emax is 100%. In addition, in data set [3], the “EGFR WT/BaF3 Imax %” value is reported as 99% and the GI50 was 2300 nM.

With `C=CC(=O)N1[C@@H]2CC[C@H]1C[C@H](Oc1cc3c(Nc4ccc(Oc5ccn6ncnc6c5)c(C)c4)ncnc3cn1)C2` [Example 26, 1-(exo-3-((4-((4-([1,2,4]Triazolo[1,5-a]pyridin-7-yloxy)-3-methylphenyl)amino)pyrido[3,4-d]pyrimidin-6-yl)oxy)-8-azabicyclo[3.2.1]octan-8-yl)prop-2-en-1-one], in data set [1], the GI50 was 9.2 nM and the Emax was found to be 100%. In data set [2], the GI50 turned out to be 23.4 nM and the Emax was determined as 100%. Moreover, in data set [3], the “EGFR WT/BaF3 Imax %” value came to 100% and the GI50 is 1630 nM. In the data set “in vivo [5]”, this compound yielded an AUC(0-t) of 32100 ng·h/mL, a CL/F of 26 mL/min/kg, a Cmax of 11300 ng/mL and a Vd/F of 2.88 L/kg. In “in vivo [5]”, this compound showed a half-life of 1.3 h.

Broadly, the AUC(0-t) is exposure summed from dosing to a finite time, without extrapolation to infinity. A higher AUC(0-t) goes with more exposure. In general, CL/F refers to clearance divided by bioavailability, as obtained after extravascular dosing. What is called Cmax is the maximum level reached in the sampled fluid or tissue. The Vd/F is the apparent distribution volume after extravascular dosing. Usually half-life stands for how long it takes for the measured level to halve. Low values mean fast loss, high ones slow loss.
